Key:
[1] = test system: hamster PDK-4 mRNA in liver; assay: PDK-4 mRNA induction in liver of fat-fed hamsters; format: in vivo; details: single dose (GW9578 3 mg/kg, fenofibrate 100 mg/kg, gemfibrozil 500 mg/kg), 16 hour post-treatment
Method: (§1) FIG. 4A is a bar graph depicting the induction of PDK-4 mRNA in hamster liver by PPARα ligands. […] After 16 hours, the tissues were harvested, total RNA isolated and levels of hamster PDK-4 mRNA were detected by RT-PCR. The values are normalized to 18S rRNA levels. The mean and SEM of three individual animals are shown.
(§2) PDK-4 plays a critical role in regulating glucose metabolism by phosphorylating and inactivating the pyruvate dehydrogenase complex in response to increased fatty acid oxidation. […] To investigate the response of PDK-4 to fibrate treatment in vivo, in another aspect of the present invention the fat-fed hamster model was employed, which closely mimics the serum lipid profiles of humans than other rodent models (Sullivan et al., (1993) Lab. Anim. Sci. 43:575-578). […] These doses were previously shown to yield maximal effects on blood triglycerides in hamster. […] In hamster kidney, the basal levels of PDK-4 mRNA were approximately 10-fold higher than in the liver (FIG. 4B). […] Fibrates are effective treatments for lowering serum triglyceride levels. To verify that the doses used in this study were efficacious, blood triglyceride levels were monitored over a 48 hour time course.
(§3) Real-time PCR: Fluorescence-based real-time PCR was performed essentially as described (Abbaszade et al., (1999) J. Biol. Chem. 274:23443-23450). […] Taqman-based real-time PCR expression profiling was performed using 25 ng of each cDNA according to the manufacturer's (PE Biosystems) instructions with fluorescence being monitored in real-time with an ABI Prism 7700 (PE Biosystems). Relative expression levels were determined essentially as described (Gibson et al., (1996) Genome Res. 6:995-1001) using standard curves for each transcript. Relative abundance was then determined from these standard curves, subtracting mRNA levels obtained from negative control reactions performed in the absence of reverse transcriptase, and normalized to 18S rRNA levels. […]

[2] = test system: hamster PDK-4 mRNA in kidney; assay: PDK-4 mRNA induction in kidney of fat-fed hamsters; format: in vivo; details: single dose (GW9578 3 mg/kg, fenofibrate 100 mg/kg, gemfibrozil 500 mg/kg), 16 hours
Method: as §1, with “4B” for “4A”, “graphs” for “graph”, “kidney” for “liver”
as §2, §3

[3] = Serum triglyceride levels in fat-fed hamsters; format: in vivo, hamster; details: for Serum triglyceride levels, 48 h / Serum triglyceride levels, 8 h / Serum triglyceride levels, 16 h: single dose, mean +/- SEM, 3 animals; for Serum triglyceride levels, 48 h: control 208.67; for Serum triglyceride levels, 8 h: control 261.33; for Serum triglyceride levels, 16 h: control 308.00
Method: Blood was sampled at 8, 16 and 48 hours following a single drug treatment for total triglyceride analysis. The mean levels (+/−SEM) for 3 animals per group are shown. The “*” indicates a statistically significant difference with respect to control (p<0.01) by Student's t-test. Animal studies: All procedures performed in this study were approved by the Animal Care and Use committee, and conform to the guide for the Care and Use of Laboratory Animals Act. Male Syrian Golden hamsters (Charles River, Wilmington Mass.) weighing 120-140 g, were used in the study. Animals were kept on a 12-hour light/dark cycle and allowed free access to normal chow and water. The animals were divided into groups according to weight, and fed either an high fat diet (0.5% cholesterol, 5% coconut oil) (N=3) or normal chow diet (N=3). […] At intervals of 0, 8, 16 and 48 hr animals were anesthetized with CO2. Blood was collected by cardiac puncture into EDTA containing tubes; plasma was isolated for immediate analysis of triglycerides by the Dade Clinical Analyser®. Animals were then euthanized with CO2. The liver and kidneys were collected, flash frozen in liquid nitrogen and stored at −80° C. for future gene expression analysis.

[4] = test system: PDK-4 mRNA in HK-2 cells (endogenous PPARα); assay: PDK-4 mRNA induction in HK-2 cells (real-time RT-PCR); format: cell-based, human; details: 24 hours; for EC50: Homo sapiens, HK-2, PDK-4 mRNA induction by quantitative PCR, normalized to 18S rRNA, read-out: EC50 (μM) in HK-2 (PDK-4)
Method: (§4) Values were normalized to 18S rRNA levels.
(§5) EC50 values were determined for PDK-4 mRNA induction by quantitative PCR under conditions used to generate the data shown in FIG. 2. EC50 values in the transactivation assays were determined by transfection of an expression plasmid encoding a GAL4-hPPARα chimera into cells co-expressing a luciferase reporter gene under the transcriptional control of GAL4 upstream activating elements.
(§6) Cell culture: The following cell lines were obtained from American Type Culture Collection (ATCC) and cultured in the recommended medium for each cell type: HepG2, HK-2, Caki-1, LNCaP (CloneFGC), SW872, and ACHN. PPARα compounds were prepared to a 500× stock in DMSO; corresponding control cells received an equal volume of vehicle (0.2% v/v).
Real-time PCR: Fluorescence-based real-time PCR was performed essentially as described (Abbaszade et al., (1999) J. Biol. Chem. 274:23443-23450). Primers and probes designed from the hamster pyruvate dehydrogenase kinase 4 (PDK4) sequence (Genbank Accession No. AF321218), human pyruvate dehydrogenase kinase 4 (PDK-4) sequence (Genbank Accession No. NM_002612) and human adipose differentiation-related protein (ADFP) sequence (Genbank Accession No. NM_001122) were synthesized and purified by Biosearch Technologies. Probes for ADFP and PDK-4 were modified at the 5′ end with the reporter dye 6-FAM, and at the 3′ end with the quencher dye Black Hole Quencher 1 (Biosearch Technologies). Probes detecting rat 18S rRNA were modified at the 5′ end with VIC and at the 3′ end with TAMRA (Biosearch Technologies). For detection of hamster PDK4, primers 5′-[…] (SEQ ID NO:2), 5′[…] (SEQ ID NO:3), and probe 5′-[…] (SEQ ID NO:4) were used. For detection of human PDK4, primers 5′-[…] (SEQ ID NO:5), 5′-[…] (SEQ ID NO:6), and probe 5′-[…] (SEQ ID NO:7) were used. For detection of human ADFP, primers 5′-[…] (SEQ ID NO:8), 5′-[…] (SEQ ID NO:9), and probe 5′-[…] (SEQ ID NO: 10) were used. For detection of 18s rRNA, primers 5′-[…] (SEQ ID NO:11), 5′-[…] (SEQ ID NO:12), and probe 5′-[…] (SEQ ID NO:13) were used. Template cDNA was generated using the Advantage RT-PCR kit according to the manufacturer's (Clontech) instructions using random hexamers and 1 μg of DNaseI-treated total RNA. Taqman-based real-time PCR expression profiling was performed using 25 ng of each cDNA according to the manufacturer's (PE Biosystems) instructions with fluorescence being monitored in real-time with an ABI Prism 7700 (PE Biosystems). Relative expression levels were determined essentially as described (Gibson et al., (1996) Genome Res. 6:995-1001) using standard curves for each transcript. Relative abundance was then determined from these standard curves, subtracting mRNA levels obtained from negative control reactions performed in the absence of reverse transcriptase, and normalized to 18S rRNA levels. All expression measurements were performed in duplicate in two independent assays, generating a total of four measurements per cDNA.

GAL4-hPPARα = molecular target: T1, GAL4-hPPARα (Homo sapiens, UniProt Q07869); assay: Transactivation assay, GAL4-hPPARα chimera with luciferase reporter; format: cell-based; details: HEK293 cell line with GAL4 UAS-Luciferase reporter; read-out: EC50 (μM) in Transactivation Assay (GAL4-hPPARα), Present Disclosure
T1 construct: other: HEK293 cell line with GAL4 UAS-Luciferase
T1 sequence (Q07869 200-468 limits assumed): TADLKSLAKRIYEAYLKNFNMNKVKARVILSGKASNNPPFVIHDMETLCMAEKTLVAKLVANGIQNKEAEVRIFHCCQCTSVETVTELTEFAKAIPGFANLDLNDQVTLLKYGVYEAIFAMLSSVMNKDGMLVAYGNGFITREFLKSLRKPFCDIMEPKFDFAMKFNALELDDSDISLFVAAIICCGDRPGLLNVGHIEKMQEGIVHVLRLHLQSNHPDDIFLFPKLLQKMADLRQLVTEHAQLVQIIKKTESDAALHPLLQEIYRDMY
Method: as §5
Transcriptional activation assay: Cell based transcriptional activation assays using a GAL4-hPPARa expression plasmid and an HEK293 cell line stably integrated with a GAL4 UAS-Luciferase reporter gene was performed exactly as described previously (Mukherjee et al., (2002) J. Steroid Biochem. Mol. Biol. 1712:1-9).

PDK-4 [5] = details: Way et al. (2001); cited from earlier work
[6] = test system: PDK4 mRNA in HEK293 cells; assay: PDK4 mRNA induction in HEK293 cells by PPAR modulators (Taqman PCR); format: cell-based, human; details: 4 hours; 100 micromolar fenofibric acid, 10 micromolar rosiglitazone, 10 micromolar GW501516; relative to CYCD1 mRNA
Method: HEK293 cells were treated for 4 hours with the following PPAR modulators:
100 micromolar fenofibric acid (a PPARα selective modulator), 10 micromolar rosiglitazone (a PPARγ selective modulator) and 10 micromolar GW501516 (a PPARβ(δ) selective modulator; Oliver et al., (2001) Proc. Natl. Acad. Sci. U.S.A. 98:5306-11). PDK4 mRNA was measured by Taqman PCR analysis. The PDK4 expression levels are expressed relative to CYCD1 mRNA used as a normalization control.

[7] = test system: ADRP mRNA in HK-2 cells (endogenous PPARα); assay: ADRP mRNA induction in HK-2 cells (real-time RT-PCR); format: cell-based, human; details: highest dose tested 300 μM
Method: as §4, §6, §3

hamster PPARα = assay: Hamster PPARα transactivation assay; format: cell-based
PDK-4 [8] = details: Wu et al. (1999); abrogated in PPARα-/- mice; cited from earlier work

Row | EC50 (GAL4-hPPARα) [µM] | SMILES | Induction of PDK-4 mRNA levels in the liver [1] | Induction of PDK-4 mRNA in kidney [2] | Serum triglyceride levels, 48 h [3] | Serum triglyceride levels, 8 h [3] | Serum triglyceride levels, 16 h [3] | EC50 [4] [µM] | also measured
1 | – | CC(C)OC(=O)C(C)(C)Oc1ccc(C(=O)c2ccc(Cl)cc2)cc1 [Fenofibrate, fenofibrate] | 14 fold | 11 fold | 146.33 + 17.15 | 229.00 + 38.52 | 231.67 + 63.22 | – | –
2 | 80 | CC(C)(Oc1ccc(C(=O)c2ccc(Cl)cc2)cc1)C(=O)O [Fenofibric Acid, fenofibric acid] | – | – | – | – | – | 10 | –
3 | – | CN(CCOc1ccc(C[C@H](Nc2ccccc2C(=O)c2ccccc2)C(=O)O)cc1)c1ccccn1 [GW1929] | – | – | – | – | – | – | PDK-4 levels in the skeletal muscle of rats (PDK-4 [5]): decrease PDK-4 levels
4 | – | Cc1cc(SCc2sc(-c3ccc(C(F)(F)F)cc3)nc2C)ccc1OCC(=O)O [GW501516] | – | – | – | – | – | – | PDK4 mRNA induction in HEK293 cells [6]: induced
5 | 60 | Cc1ccc(C)c(OCCCC(C)(C)C(=O)O)c1 [Gemfibrozil] | least effect | no effect | 206.33 + 65.30 | 334.33 + 82.42 | 325.67 + 46.77 | 27 | Efficacy of PDK-4 induction compared with GW9578 ([4]; HK-2 cells, maximal induction by GW9578 = 100%): lower efficacy than GW9578; Saturation of ADRP induction [7]: did not appear to saturate; Activity in hamster PPARα transactivation assay (hamster PPARα): lowest activity; Change of triglyceride levels compared with the control group ([3]; single dose, 8, 16 and 48 hours): neither gemfibrozil nor fenofibrate altered triglyceride levels to a statistically significant degree
6 | – | Cc1cccc(Nc2cc(Cl)nc(SCC(=O)O)n2)c1C [WY-14, 643] | – | – | – | – | – | – | PDK-4 induction in rodent tissues in vivo (PDK-4 [8]): PDK-4 induction was observed

— patent publication US20040106135A1, “Assay for PPAR ligand dependent gene modulation” (priority 2002, published 2004)
